Experimental data from patent US5856535A, “Aminosterol ester compounds” (priority 1996, dated 1999).
Values after ≈ are worked out from the molar mass of the structure shown. Like-named read-outs stand apart in the source and are kept apart here.

Experiments:
[1] = test system: chick embryo vitelline capillaries; experiment: chick embryo vitelline capillary regression assay; type: in vivo; design: key to Chick embryo vitelline capillary regression: +: Vascular reactivity; 0: No vascular reactivity; +/-: Equivocal reactivity
Method: Using the chick embryo vitelline capillaries assay, various aminosterol compounds were tested for their ability to induce capillary regression. Each compound was applied in 0.1 ml of 15% Ficol 400 and PBS onto the embryo, and vascular regression was assessed after 60 minutes. These tests were conducted by the chorioallantoic membrane anti-angiogenesis assay by applying the material to be assayed to 3 day old fertilized chick embryos in the manner described by Wilks et al., "Inhibition of Angiogenesis With Combination Angiostatic Steroids and Suramin," Radiation Biology, Vol. 60, Nos. 1/2, 1991, pp. 73-77, which article is entirely incorporated herein by reference.
The 3-day chick embryo consists of an embryonic disc from which numerous vessels emerge and return, forming a "figure 8"-shaped structure--the embryo in the center with vascular loops extending outward over both poles. […] Following a lag period of around 15 minutes, the constriction of continuity between capillary and secondary vessels, generally on the "venous" side, was observed. Continued pulsatile blood flow progressed, resulting in a "swelling" of the blind tube, followed by a pinching off of the remaining connection and formation of an enclosed vascular sac resembling a "blood island." This process progressed until only the largest vessels remained intact.

[2] = test system: human microvascular cells; experiment: endothelial cell cord formation assay (human microvascular cells, VEGF and bFGF, collagen matrix); type: cell-based; settings: for inhibition of angiogenesis (in words): higher doses; for minimal effective concentration: Homo sapiens, Endothelial cell
Source text: Endothelial cells have the capacity in vitro to form tubular aggregates resembling capillaries in various early stages of formation. This conversion occurs under relatively specific conditions, in which essential growth factors along with an effective substratum are provided. It has been shown that both the interaction of growth factors with the endothelial cell and its attachment to a substratum activate the NHE. The activation of this exchanger is believed to be required for subsequent morphologic transformation of the endothelial cell into a multicellular tubular structure.
To assess the effect of compounds on the cord-like structures formed by human microvascular cells when plated in the presence of VEGF (Vascular Endothelial Growth Factor) and basic fibroblast growth factor on a collagen matrix, a standard cord formation assay was performed using the method described by Goto, et al., "Synergistic Effects of Vascular Endothelial Growth Factor and Basic Fibroblast Growth Factor on the Proliferation and Cord Formation of Bovine Capillary Endothelial Cells Within Collagen Gels," Laboratory Investigation, Vol. 69, No. 5, 1993, pp. 508-517. This article is entirely incorporated herein by reference.

[3] = test system: Xenopus laevis Stages 59-60 tadpoles; experiment: tadpole assay; type: in vivo; settings: 10 μg/ml where stated
S. aureus = experiment: antibiotic activity, S. aureus; type: cell-based; settings: Staphylococcus aureus
P. aerug = experiment: antibiotic activity, P. aerug; type: cell-based
C. albicans = experiment: antibiotic activity, C. albicans; type: cell-based; settings: Candida albicans
E. Coli = experiment: antibiotic activity, E. Coli; type: cell-based; settings: Escherichia coli
melanoma cells = experiment: MTT assay for cell number; type: cell-based; settings: for minimal effective concentration: 48 h, Table II, read-out: Minimum Effective Concentration, MTT assay
Method: In Table V, several aminosterol esters show efficacy in killing melanoma cells in the MTT assay.
(§1) The MTT assay for cell number is performed as follows. Cells are counted on a hemocytometer and diluted to a concentration of approx. 10,000 cells/well (55,000 cells/ml×0.18 ml). Cells are then plated in a 96 well microtiter plate and allowed to attach overnight. The next day, compounds are serially diluted from 1000 to 15.6 μg/ml and run in duplicate. 20 μl of each dilution are transferred to the pre-seeded microtiter plates. The final concentrations are 100 to 1.56 μg/ml. The plates are then incubated for 48 hours at 37° C. in 5% CO2. After 48 hours, MTT solution is added. The plate is re-incubated for 4 hours. Readings are done by removing all but 30 μl of media and MTT solution and dissolving the formazan crystals with DMSO. The formazan is dissolved by mixing on a rotating plate at low speed for about 30 minutes. Absorbance of converted dye is measured at a wavelength of 560 nm with background subtraction at 630 nm. The percent survival is determined by a comparison between the mean absorbance of the duplicate test lanes and the growth control.

LLC = LLC MTT; type: cell-based; settings: Lewis lung carcinoma, 48 h; Table II; read-out: Minimum Effective Concentration, LLC MTT
Method: as §1

splenocytes = experiment: mitogen proliferation assay (splenocytes of treated mice, Con A); type: in vivo; settings: for potency in the mitogen proliferation assay (in words): mouse, in vivo; for Rel. potency to MSI-1436, Mitogen Proliferation Assay: 10 mg/kg iv
Method: For the attached Tables, the mitogen proliferation assay was performed by treating mice (male or female) with various amounts of the aminosterol test compounds. Some time later (typically between 2 hours and 14 days), the mice are sacrificed and their spleens removed. Splenocytes are harvested and cultured in the presence of between 1-10 μg/ml of Con A (Sigma) for 48 hours. See James Morgan, "Monoclonal Antibody Production," Modern Methods in Pharmacology, pp. 29-67, eds., Spector and Back, 1988. This excerpt is entirely incorporated herein by reference. Cell proliferation is monitored either by direct cell counting or by measurement of the incorporation of radioactive thymidine.

red blood cells = experiment: swelling of red blood cells; type: cell-based
[4] = inhibition of MSI-1436 binding; settings: 3H-MSI-1436 at 20 μg/mL
HIV = experiment: inhibition of HIV replication in vitro (HIV Inhib.); type: cell-based; settings: for inhibition at 0.14 µM: Human immunodeficiency virus 1, read-out: % Inhib of HIV
in vitro = settings: human, pbmc

COC(=O)CC[C@@H](C)[C@H]1CC[C@H]2[C@@H]3[C@H](O)C[C@@H]4C[C@@H](NCCCNCCCCNCCCN)CC[C@]4(C)[C@H]3CC[C@]12C [Compound 411]
Chick embryo vitelline capillary regression ([1]; 1 μg applied, 60 minutes): +/-
inhibition of angiogenesis (in words) [2]: inhibit angiogenesis at higher doses

COC(=O)CC[C@@H](C)[C@H]1CC[C@H]2[C@@H]3[C@H](O)C[C@@H]4C[C@H](NCCN)CC[C@]4(C)[C@H]3CC[C@]12C [Compound 410]
effect on vitelline capillaries (in words) ([1]; 3- to 5-day chick embryo): substantial activity
inhibition of angiogenesis (in words) [2]: inhibit angiogenesis at higher doses
effect on embryonic epithelium / epithelial shedding (in words) [3]: functionally similar to compound 1437

COC(=O)CCC(C)[C@H]1CCC2C3C(CC[C@@]21C)[C@@]1(C)CC[C@@H](NCCCNCCCCN)C[C@H]1C[C@H]3O (stereo partly drawn) [drawing 38]
MIC (S. aureus): 4 µg/mL (≈ 7.49 µM)
MIC (P. aerug): 64 µg/mL (≈ 120 µM)
MIC (C. albicans): 64 µg/mL (≈ 120 µM)
MIC (E. Coli): 32 to 64 µg/mL (≈ 59.9 to 120 µM)

CC(CC[C@@H](OS(=O)(=O)O)C(C)C)[C@H]1CCC2C3C(CC[C@@]21C)[C@@]1(C)CC[C@H](NCCCNCCCCNCCCN)C[C@@H]1C[C@H]3O (stereo partly drawn) [drawing 93]
minimal effective concentration (melanoma cells): 6.9 µg/mL
minimal effective concentration (LLC): 16.7 µg/mL

CO[C@@H]1[C@H](OC(=O)/C=C/C=C/C=C/C=C/C(=O)O)CC[C@]2(CO2)[C@H]1[C@@]1(C)O[C@@H]1CC=C(C)C [Fumagillin, reference compound]
minimal effective concentration ([2]; text to the table, read-out: concentration at which cord formation is inhibited): 10 µg/mL

CC(CCC(=O)O)[C@H]1CCC2C3C(CC[C@@]21C)[C@@]1(C)CC[C@@H](NCCCNCCCCNCCCN)C[C@H]1C[C@H]3O (stereo partly drawn)
MIC (S. aureus): 64 µg/mL (≈ 111 µM)
MIC (E. Coli): 8 µg/mL (≈ 13.9 µM)

COC(=O)CC[C@@H](C)[C@H]1CC[C@H]2[C@@H]3CC[C@H]4C[C@@H](NCCCNCCCCNCCCN)CC[C@]4(C)[C@H]3CC[C@]12C [Compound 459]
potency in the mitogen proliferation assay (in words) (splenocytes): substantial potency
induction of swelling of red blood cells (in words) (red blood cells): induce swelling of red blood cells

CC(CCC(=O)O)[C@H]1CCC2C3C(CC[C@@]21C)[C@@]1(C)CC[C@H](NCCCNCCCCNCCCN)C[C@H]1C[C@H]3O (stereo partly drawn) [drawing 43]
MIC (P. aerug): 64 µg/mL (≈ 111 µM)

CC(C)CCCC(C)[C@H]1CCC2C3CC[C@H]4C[C@@H](NCCCNCCCCNCCCN)CC[C@]4(C)C3CC[C@@]21C (stereo partly drawn)
minimal effective concentration (melanoma cells): 3 µg/mL
minimal effective concentration ([2]; Table II, read-out: Minimum Effective Concentration, HM Cord Formation): 10 µg/mL

COC(=O)CC[C@@H](C)[C@H]1CC[C@H]2[C@@H]3C[C@@H](O)[C@H]4C[C@@H](NCCCNCCCCNCCCN)CC[C@]4(C)[C@H]3CC[C@]12C [Compound 466]
potency in the mitogen proliferation assay (in words) (splenocytes): substantial potency
induction of swelling of red blood cells (in words) (red blood cells): induce swelling of red blood cells

CC(C)[C@@H](CC[C@@H](C)[C@H]1CC[C@H]2[C@@H]3[C@H](O)C[C@H]4C[C@@H](NCCCNCCCCN)CC[C@]4(C)[C@H]3CC[C@]12C)OS(=O)(=O)O [drawing 92]
minimal effective concentration (melanoma cells): 7.8 µg/mL
minimal effective concentration (LLC): 13.2 µg/mL

COC(=O)CCC(C)[C@H]1CCC2C3C(CC[C@@]21C)[C@@]1(C)CC[C@H](NCCCNCCCCN)C[C@H]1C[C@H]3O (stereo partly drawn)
MIC (S. aureus): 64 µg/mL (≈ 120 µM)
MIC (P. aerug): > 256 µg/mL
MIC (C. albicans): 256 µg/mL (≈ 480 µM)
MIC (E. Coli): 256 µg/mL (≈ 480 µM)

COC(=O)CCC(C)[C@H]1CCC2C3C(CC[C@@]21C)[C@@]1(C)CC[C@@H](NCCN)C[C@H]1C[C@H]3O (stereo partly drawn) [drawing 40]
MIC (P. aerug): 32 µg/mL (≈ 71.3 µM)

C=C(C)C(=O)CC[C@@H](C)[C@H]1CC[C@H]2[C@@H]3[C@H](O)C[C@H]4C[C@@H](NCCCNCCCCN)CC[C@]4(C)[C@H]3CC[C@]12C [Compound 1361, reference compound]
induction of swelling of red blood cells (in words) (red blood cells): induce swelling of red blood cells

CC(CCC(CO)(OS(=O)(=O)O)C(C)C)[C@H]1CCC2C3C(CC[C@@]21C)[C@@]1(C)CC[C@H](NCCCNCCCCN)C[C@@H]1C[C@H]3O (stereo partly drawn) [drawing 52]
MIC (S. aureus): 2 µg/mL (≈ 3.04 µM)
MIC (P. aerug): 16 µg/mL (≈ 24.3 µM)
MIC (C. albicans): 16 µg/mL (≈ 24.3 µM)
MIC (E. Coli): 4 µg/mL (≈ 6.08 µM)

COC(=O)CC[C@@H](C)[C@H]1CC[C@H]2[C@@H]3CC[C@@H]4C[C@H](NCCCNCCCCNCCCN)CC[C@]4(C)[C@H]3CC[C@]12C [Compound 569]
Rel. potency to MSI-1436, Mitogen Proliferation Assay (splenocytes): 0.50
potency in the mitogen proliferation assay (in words) (splenocytes): substantial potency
% Inhib. of MSI-1436 Binding @ 100 μg/mL [4]: 78%
MTT assay IC50 (melanoma cells; Tables III-V): 15 µg/mL
IC50 (melanoma cells; Tables III-V, read-out: MTT assay IC50): 14.5 µg/mL (≈ 25.2 µM)
inhibition of HIV relative to compound 1436 (in words) (HIV): higher inhibition of HIV than compound 1436
inhibition at 0.14 µM (HIV): 91%
cytotoxicity at 14 µM (in vitro): 9%

CC(CCC(=O)O)[C@H]1CCC2C3C(CC[C@@]21C)[C@@]1(C)CC[C@H](NCCCNCCCCNCCCN)C[C@@H]1C[C@H]3O (stereo partly drawn)
MIC (S. aureus): 16 µg/mL (≈ 27.7 µM)
MIC (P. aerug): 16 µg/mL (≈ 27.7 µM)
MIC (C. albicans): 32 µg/mL (≈ 55.5 µM)
MIC (E. Coli): 32 to 64 µg/mL (≈ 55.5 to 111 µM)

COC(=O)CC[C@@H](C)[C@H]1CC[C@H]2[C@@H]3C[C@@H](O)[C@H]4C[C@@H](NCCCNCCCCN)CC[C@]4(C)[C@H]3CC[C@]12C [Compound 566]
induction of swelling of red blood cells (in words) (red blood cells): induce swelling of red blood cells

CC(CCC(CO)(OS(=O)(=O)O)C(C)C)[C@H]1CCC2C3C(CC[C@@]21C)[C@@]1(C)CC[C@H](NCCCNCCCCN)C[C@@H]1C[C@H]3O (stereo partly drawn) [drawing 99]
Rel. potency to MSI-1436, Mitogen Proliferation Assay (splenocytes): 1.08
% Inhib. of MSI-1436 Binding @ 100 μg/mL [4]: 14%
inhibition at 0.14 µM (HIV): -44%
cytotoxicity at 14 µM (in vitro): 0%

CC(CC[C@@H](OS(=O)(=O)O)C(C)C)[C@H]1CCC2C3C(CC[C@@]21C)[C@@]1(C)CC[C@H](NCCCNCCCCNCCCN)C[C@@H]1C[C@H]3O (stereo partly drawn) [drawing 51]
MIC (S. aureus): 1 µg/mL (≈ 1.46 µM)
MIC (P. aerug): 4 µg/mL (≈ 5.84 µM)
MIC (C. albicans): 8 µg/mL (≈ 11.7 µM)
MIC (E. Coli): 1 to 2 µg/mL (≈ 1.46 to 2.92 µM)
